Assays:
[1] = biological target: T1, isolated recombinant JAK2 kinase domain (Homo sapiens, UniProt O60674); assay: JAK2 enzyme assay (Caliper LabChip, Ki); assay type: biochemical; details: 25 μM ATP
T1 construct: The activity of the isolated recombinant JAK1 and JAK2 kinase domain was measured
Method in brief: (§1)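 Values are Ki estimates derived with the Morrison tight-binding equation modified for competition with ATP. Activity of the recombinant kinase domains was measured as peptide phosphorylation on a Caliper LabChip after a 30-minute, 22° C reaction terminated by EDTA.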

[2] = biological target: T2, isolated recombinant JAK1 kinase domain (Homo sapiens, UniProt P23458); assay: JAK1 enzyme assay (Caliper LabChip, Ki); assay type: biochemical; details: recombinant JAK1 kinase domain, 25 μM ATP
T2 construct: The activity of the isolated recombinant JAK1 and JAK2 kinase domain was measured
Method in brief: as §1

[3] = test system: JAK1-dependent STAT6 phosphorylation downstream of IL-13 stimulation in BEAS-2B human bronchial epithelial cells; assay: JAK1 pathway assay in BEAS-2B cells (IL-13 stimulated STAT6 phosphorylation, MSD); assay type: cell-based; details: read-out: P-STAT6 BEAS2B + IL13 IC50
Method in brief: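 BEAS-2B human bronchial epithelial cells, plated the day before in complete growth medium, were preincubated with compound for 1 hr at 37° C (0.2% DMSO final), then stimulated with IL-13 at its EC90 for 15 min. STAT6 phosphorylation in lysates was read by MSD; EC50 was taken as 50% inhibition versus DMSO control.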

T1 sequence (O60674 849-1124 limits assumed): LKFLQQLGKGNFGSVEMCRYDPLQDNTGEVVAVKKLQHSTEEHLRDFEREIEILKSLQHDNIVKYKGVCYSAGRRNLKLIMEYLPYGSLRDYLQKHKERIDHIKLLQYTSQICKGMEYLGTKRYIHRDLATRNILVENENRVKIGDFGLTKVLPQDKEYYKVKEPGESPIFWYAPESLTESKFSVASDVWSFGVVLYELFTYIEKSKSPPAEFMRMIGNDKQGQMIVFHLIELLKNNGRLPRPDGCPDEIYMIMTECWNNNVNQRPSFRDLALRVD
T2 sequence (P23458 875-1153 limits assumed): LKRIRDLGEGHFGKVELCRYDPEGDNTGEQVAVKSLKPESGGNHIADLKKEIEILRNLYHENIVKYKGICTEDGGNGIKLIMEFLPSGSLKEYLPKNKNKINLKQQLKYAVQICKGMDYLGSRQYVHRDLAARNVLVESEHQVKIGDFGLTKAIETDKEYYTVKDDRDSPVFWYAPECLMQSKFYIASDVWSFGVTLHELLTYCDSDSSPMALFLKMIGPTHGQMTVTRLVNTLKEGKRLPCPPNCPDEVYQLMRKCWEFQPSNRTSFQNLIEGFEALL

Compound | Ki [1] [nM] | Ki [2] [nM] | IC50 [3] [nM]
CNC(=O)[C@@H]1CCCN1C1CCN(C(=O)Cn2cc(NC(=O)c3cnn4cccnc34)c(-c3cc(SC)ccc3OC(F)F)n2)CC1 [Example 52, N-[3-[2-(difluoromethoxy)-5-methylsulfanyl-phenyl]-1-[2-[4-[(2S)-2-(methylcarbamoyl)pyrrolidin-1-yl]-1-piperidyl]-2-oxo-ethyl]pyrazol-4-yl]pyrazolo[1,5-a]pyrimidine-3-carboxamide] | 0.44 | 0.29 | 43
CSc1ccc(OC(F)F)c(-c2nn(CC(=O)N3CCN(C4CCOCC4)CC3)cc2NC(=O)c2cnn3cccnc23)c1 [Example 53, N-[3-[2-(difluoromethoxy)-5-methylsulfanyl-phenyl]-1-[2-oxo-2-(4-tetrahydropyran-4-ylpiperazin-1-yl)ethyl]pyrazol-4-yl]pyrazolo[1,5-a]pyrimidine-3-carboxamide] | 0.32 | 0.27 | 12
CSc1ccc(OC(F)F)c(-c2nn(CC(=O)N3CCN(C4CCOC4)CC3)cc2NC(=O)c2cnn3cccnc23)c1 (stereo not drawn) [Example 54, N-[3-[2-(difluoromethoxy)-5-methylsulfanyl-phenyl]-1-[2-oxo-2-(4-tetrahydrofuran-3-ylpiperazin-1-yl)ethyl]pyrazol-4-yl]pyrazolo[1,5-a]pyrimidine-3-carboxamide] | 0.31 | 0.23 | 12
CSc1ccc(OC(F)F)c(-c2nn(CC(=O)N3CCC(N4CCC[C@H](C#N)C4)CC3)cc2NC(=O)c2cnn3cccnc23)c1 [Example 55, N-[1-(2-[4-[(3 S)-3-cyanopiperidin-1-yl]piperidin-1-yl]-2-oxoethyl)-3-[2-(difluoromethoxy)-5-(methylsulfanyl)phenyl]-1H-pyrazol-4-yl]pyrazolo[1,5-a]pyrimidine-3-carboxamide] | 0.52 | 0.27 | 11
CSc1ccc(OC(F)F)c(-c2nn(CC(=O)N3C[C@@H]4CCN[C@@H]4C3)cc2NC(=O)c2cnn3cccnc23)c1 [Example 56, N-[1-[2-[(3aS,6aS)-2,3,3a,4,6,6a-hexahydro-1H-pyrrolo[2,3-c]pyrrol-5-yl]-2-oxo-ethyl]-3-[2-(difluoromethoxy)-5-methylsulfanyl-phenyl]pyrazol-4-yl]pyrazolo[1,5-a]pyrimidine-3-carboxamide] | 0.48 | 0.41 | 84
CSc1ccc(OC(F)F)c(-c2nn(CC(=O)N3CCC(N4CCOC[C@H]4C)CC3)cc2NC(=O)c2cnn3cccnc23)c1 [Example 57, N-[3-[2-(difluoromethoxy)-5-methylsulfanyl-phenyl]-1-[2-[4-[(3R)-3-methylmorpholin-4-yl]-1-piperidyl]-2-oxo-ethyl]pyrazol-4-yl]pyrazolo[1,5-a]pyrimidine-3-carboxamide] | 0.43 | 0.26 | 18
CSc1ccc(OC(F)F)c(-c2nn(CC(=O)N3CCC(N4CCC[C@@H](C#N)C4)CC3)cc2NC(=O)c2cnn3cccnc23)c1 [Example 58, N-[1-(2-[4-[(3R)-3-cyanopiperidin-1-yl]piperidin-1-yl]-2-oxoethyl)-3-[2-(difluoromethoxy)-5-(methylsulfanyl)phenyl]-1H-pyrazol-4-yl]pyrazolo[1,5-a]pyrimidine-3-carboxamide] | 0.33 | 0.2 | 13
CSc1ccc(OC(F)F)c(-c2nn(CC(=O)N3CCC(N4CC(C#N)C4)CC3)cc2NC(=O)c2cnn3cccnc23)c1 [Example 59, N-[1-[2-[4-(3-cyanoazetidin-1-yl)-1-piperidyl]-2-oxo-ethyl]-3-[2-(difluoromethoxy)-5-methylsulfanyl-phenyl]pyrazol-4-yl]pyrazolo[1,5-a]pyrimidine-3-carboxamide] | 0.34 | 0.2 | 15
CSc1ccc(OC(F)F)c(-c2nn(CC(=O)N3CCC(N(C)[C@@H]4CCOC4)CC3)cc2NC(=O)c2cnn3cccnc23)c1 [Example 60, N-[3-[2-(difluoromethoxy)-5-methylsulfanyl-phenyl]-1-[2-[4-[methyl-[(3R)-tetrahydrofuran-3-yl]amino]-1-piperidyl]-2-oxo-ethyl]pyrazol-4-yl]pyrazolo[1,5-a]pyrimidine-3-carboxamide] | 0.52 | 0.31 | 14
CSc1ccc(OC(F)F)c(-c2nn(CC(=O)N3CCC(N4CCOC[C@@H]4C)CC3)cc2NC(=O)c2cnn3cccnc23)c1 [Example 61, N-[3-[2-(difluoromethoxy)-5-methylsulfanyl-phenyl]-1-[2-[4-[(3S)-3-methylmorpholin-4-yl]-1-piperidyl]-2-oxo-ethyl]pyrazol-4-yl]pyrazolo[1,5-a]pyrimidine-3-carboxamide] | 0.48 | 0.25 | 13
CSc1ccc(OC(F)F)c(-c2nn(CC(=O)N3CCC(N4CCS(=O)(=O)CC4)CC3)cc2NC(=O)c2cnn3cccnc23)c1 [Example 62, N-[3-[2-(difluoromethoxy)-5-methylsulfanyl-phenyl]-1-[2-[4-(1,1-dioxo-1,4-thiazinan-4-yl)-1-piperidyl]-2-oxo-ethyl]pyrazol-4-yl]pyrazolo[1,5-a]pyrimidine-3-carboxamide] | 0.38 | 0.27 | 160
CSc1ccc(OC(F)F)c(-c2nn(CC(=O)N3CCC(N4CCN(C)CC4)CC3)cc2NC(=O)c2cnn3cccnc23)c1 [Example 63, N-[3-[2-(difluoromethoxy)-5-(methylsulfanyl)phenyl]-1-[2-[4-(4-methylpiperazin-1-yl)piperidin-1-yl]-2-oxoethyl]-1H-pyrazol-4-yl]pyrazolo[1,5-a]pyrimidine-3-carboxamide] | 0.7 | 0.35 | 22
CSc1ccc(OC(F)F)c(-c2nn(CC(=O)N3CCC(NCCCC#N)CC3)cc2NC(=O)c2cnn3cccnc23)c1 [Example 64, N-[1-[2-[4-(3-cyanopropylamino)-1-piperidyl]-2-oxo-ethyl]-3-[2-(difluoromethoxy)-5-methylsulfanyl-phenyl]pyrazol-4-yl]pyrazolo[1,5-a]pyrimidine-3-carboxamide] | 0.48 | 0.33 | 52
CSc1ccc(OC(F)F)c(-c2nn(CC(=O)N3CCN(CC4CCOCC4)CC3)cc2NC(=O)c2cnn3cccnc23)c1 [Example 65, N-[3-[2-(difluoromethoxy)-5-methylsulfanyl-phenyl]-1-[2-oxo-2-[4-(tetrahydropyran-4-ylmethyl)piperazin-1-yl]ethyl]pyrazol-4-yl]pyrazolo[1,5-a]pyrimidine-3-carboxamide] | 0.49 | 0.41 | 15
CSc1ccc(OC(F)F)c(-c2nn(CC(=O)N3CCN(C4CCSCC4)CC3)cc2NC(=O)c2cnn3cccnc23)c1 [Example 66, N-[3-[2-(difluoromethoxy)-5-methylsulfanyl-phenyl]-1-[2-oxo-2-(4-tetrahydrothiopyran-4-ylpiperazin-1-yl)ethyl]pyrazol-4-yl]pyrazolo[1,5-a]pyrimidine-3-carboxamide] | 0.24 | 0.2 | 5
CSc1ccc(OC(F)F)c(-c2nn(CC(=O)N3CC=CCC3)cc2NC(=O)c2cnn3cccnc23)c1 [Example 67, N-[3-[2-(difluoromethoxy)-5-methylsulfanyl-phenyl]-1-[2-(3,6-dihydro-2H-pyridin-1-yl)-2-oxo-ethyl]pyrazol-4-yl]pyrazolo[1,5-a]pyrimidine-3-carboxamide] | 0.27 | 0.19 | 8.9
CSc1ccc(OC(F)F)c(-c2nn(CC(=O)N3CCC(N(C)CCC(=O)N4CCC4)CC3)cc2NC(=O)c2cnn3cccnc23)c1 [Example 68, N-[1-[2-[4-[[3-(azetidin-1-yl)-3-oxo-propyl]-methyl-amino]-1-piperidyl]-2-oxo-ethyl]-3-[2-(difluoromethoxy)-5-methylsulfanyl-phenyl]pyrazol-4-yl]pyrazolo[1,5-a]pyrimidine-3-carboxamide] | 0.85 | 0.47 | 300
CSc1ccc(OC(F)F)c(-c2nn(CC(=O)N3CCC(N4CCN(C5COC5)CC4)CC3)cc2NC(=O)c2cnn3cccnc23)c1 [Example 69, N-[3-[2-(difluoromethoxy)-5-methylsulfanyl-phenyl]-1-[2-[4-[4-(oxetan-3-yl)piperazin-1-yl]-1-piperidyl]-2-oxo-ethyl]pyrazol-4-yl]pyrazolo[1,5-a]pyrimidine-3-carboxamide] | 0.71 | 0.35 | 50
CSc1ccc(OC(F)F)c(-c2nn(CC(=O)N3CCC(N4CCN(C5CCOCC5)CC4)CC3)cc2NC(=O)c2cnn3cccnc23)c1 [Example 70, N-[3-[2-(difluoromethoxy)-5-methylsulfanyl-phenyl]-1-[2-oxo-2-[4-(4-tetrahydropyran-4-ylpiperazin-1-yl)-1-piperidyl]ethyl]pyrazol-4-yl]pyrazolo[1,5-a]pyrimidine-3-carboxamide] | 0.82 | 0.42 | 38
CSc1ccc(OC(F)F)c(-c2nn(CC(=O)N3CCC(OCC(=O)N4CCN(C)CC4)CC3)cc2NC(=O)c2cnn3cccnc23)c1 [Example 71, N-(3-(2-(difluoromethoxy)-5-(methylthio)phenyl)-1-(2-(4-(2-(4-methylpiperazin-1-yl)-2-oxoethoxy)piperidin-1-yl)-2-oxoethyl)-1H-pyrazol-4-yl)pyrazolo[1,5-a]pyrimidine-3-carboxamide] | 1.1 | 0.59 | 83

Source: patent US20180265515A1 (Genentech, Inc., priority 2015, published 2018)
